Assay results taken from ChEMBL document CHEMBL5584307, “Discovery of a Potent and Orally Bioavailable Xanthine Oxidase/Urate Transporter 1 Dual Inhibitor as a Potential Treatment for Hyperuricemia and Gout” (J Med Chem, 2024).

Experiments:
[1] = Genotoxicity in Salmonella typhimurium TA1535 by Ames test; assay type: toxicity; details: salmonella enterica subsp. enterica serovar typhimurium
[2] = Stability in rat liver microsomes assessed as half life at 1 uM measured upto 60 mins in presence of NADPH by LC-MS/MS analysis; assay type: ADME, Microsome
[3] = Toxicity in cynomolgous monkey assessed as increase in salivation at 90 to 200 mg/kg/day for 28 days consecutively; assay type: organism-based, Macaca fascicularis; details: cynomolgus monkey, in vivo, 672 h; dose 90-200 mg/kg/day, time 28 day
[4] = Cmax in Tufted capuchin monkey at 30 mg/kg, po measured for 24 hrs by LC-MS/MS analysis; assay type: ADME, organism-based; details: sapajus apella, in vivo
[5] = Toxicity in Sprague-Dawley rat assessed as development-limiting effect; details: in vivo
Cytochrome P450 1A2 [6] = biological target: T1, Cytochrome P450 1A2 (Homo sapiens, UniProt P05177); assay: Induction of CYP1A2 in human hepatocytes at 50 uM incubated for 48 hrs with media containing compound renewal every 24 hrs followed by substrate addition measured after 30 mins by LC-MS/MS analysis; assay type: ADME, cell-based, Hepatocyte; details: 48.5 h
T1 sequence (P05177 whole entry): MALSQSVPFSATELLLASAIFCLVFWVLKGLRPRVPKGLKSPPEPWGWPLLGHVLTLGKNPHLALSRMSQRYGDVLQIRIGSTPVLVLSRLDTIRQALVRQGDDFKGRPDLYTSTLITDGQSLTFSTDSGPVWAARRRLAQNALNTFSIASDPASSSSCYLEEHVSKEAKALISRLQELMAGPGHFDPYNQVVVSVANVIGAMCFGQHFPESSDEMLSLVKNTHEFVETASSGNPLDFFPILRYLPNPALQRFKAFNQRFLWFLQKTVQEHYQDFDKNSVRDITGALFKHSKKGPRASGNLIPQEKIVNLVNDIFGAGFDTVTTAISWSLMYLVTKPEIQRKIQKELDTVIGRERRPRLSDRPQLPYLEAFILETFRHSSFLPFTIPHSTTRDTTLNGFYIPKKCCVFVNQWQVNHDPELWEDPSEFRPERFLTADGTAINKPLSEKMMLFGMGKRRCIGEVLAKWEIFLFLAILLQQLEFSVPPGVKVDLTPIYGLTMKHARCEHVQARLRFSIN

[7] = Cmax in Beagle dog at 5 mg/kg, po measured upto 24 hrs by LC-MS/MS analysis; assay type: ADME, organism-based, Canis lupus familiaris; details: in vivo
[8] = Toxicity in rat assessed as decrease in food consumption at 60 to 120 mg/kg/day for 28 days; assay type: organism-based; details: in vivo, 672 h, dose 60-120 mg/kg/day, time 28 day
[9] = biological target: T2, Voltage-gated inwardly rectifying potassium channel KCNH2 (Homo sapiens, UniProt Q12809); assay: Inhibition of hERG transfected in HEK293 cells by patch clamp assay; assay type: toxicity, cell-based
T2 sequence (Q12809 whole entry): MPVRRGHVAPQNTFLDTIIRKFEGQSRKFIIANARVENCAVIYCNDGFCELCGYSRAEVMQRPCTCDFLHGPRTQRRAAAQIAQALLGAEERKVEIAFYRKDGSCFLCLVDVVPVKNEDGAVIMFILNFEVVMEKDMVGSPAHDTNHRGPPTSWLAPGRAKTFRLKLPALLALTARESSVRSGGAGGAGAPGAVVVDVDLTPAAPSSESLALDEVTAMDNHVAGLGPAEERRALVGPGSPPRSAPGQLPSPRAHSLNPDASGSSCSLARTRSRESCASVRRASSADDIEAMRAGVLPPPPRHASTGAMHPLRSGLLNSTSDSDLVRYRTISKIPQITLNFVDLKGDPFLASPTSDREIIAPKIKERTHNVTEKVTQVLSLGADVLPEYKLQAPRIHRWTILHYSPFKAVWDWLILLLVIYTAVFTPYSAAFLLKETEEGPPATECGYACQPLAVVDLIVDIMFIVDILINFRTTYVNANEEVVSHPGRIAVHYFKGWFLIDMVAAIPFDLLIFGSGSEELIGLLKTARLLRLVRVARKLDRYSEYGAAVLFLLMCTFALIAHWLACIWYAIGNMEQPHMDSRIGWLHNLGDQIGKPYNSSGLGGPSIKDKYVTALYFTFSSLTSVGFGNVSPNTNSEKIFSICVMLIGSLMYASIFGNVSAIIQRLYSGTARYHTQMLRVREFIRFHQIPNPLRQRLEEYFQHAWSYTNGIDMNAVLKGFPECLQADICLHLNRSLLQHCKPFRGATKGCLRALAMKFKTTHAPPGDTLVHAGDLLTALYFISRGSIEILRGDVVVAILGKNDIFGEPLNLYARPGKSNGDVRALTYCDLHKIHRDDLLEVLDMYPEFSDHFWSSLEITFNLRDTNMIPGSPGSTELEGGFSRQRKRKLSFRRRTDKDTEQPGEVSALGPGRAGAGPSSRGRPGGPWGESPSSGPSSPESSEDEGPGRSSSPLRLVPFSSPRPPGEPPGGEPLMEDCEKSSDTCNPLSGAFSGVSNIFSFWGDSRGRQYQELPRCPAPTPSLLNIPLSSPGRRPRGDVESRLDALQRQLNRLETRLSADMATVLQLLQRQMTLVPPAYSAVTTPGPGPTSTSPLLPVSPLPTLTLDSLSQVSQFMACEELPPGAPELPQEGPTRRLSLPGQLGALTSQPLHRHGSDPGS

[10] = AUC (0 to t) in female rat at 60 mg/kg/day for 28 days; assay type: ADME, organism-based; details: in vivo, time 28 day
[11] = Toxicity in cynomolgous monkey administered daily for 28 days; set-up: species or system Macaca fascicularis; details: cynomolgus monkey, in vivo; time 28 day
[12] = Tmax in Tufted capuchin monkey at 30 mg/kg, po measured for 24 hrs by LC-MS/MS analysis; assay type: ADME, organism-based; details: sapajus apella, in vivo
Sapajus apella = assay: Urate lowering effect in Tufted capuchin monkey assessed as urine xanthine level at 30 mg/kg/day, po qd for 3 days consecutively; assay type: functional; details: time 3 day
[13] = Toxicity in monkey; set-up: species or system Macaca mulatta; details: rhesus monkey, in vivo
[14] = AUC (last) in Tufted capuchin monkey at 100 mg/kg, po measured for 24 hrs by LC-MS/MS analysis; assay type: ADME, organism-based; details: sapajus apella, in vivo
[15] = Ratio of drug concentration in Sprague-Dawley rat kidney to plasma at 3 mg/kg, po measured for 24 hrs by LC-MS/MS analysis; assay type: ADME, organism-based; details: kidney and plasma
[16] = Oral bioavailability in overnight-fasted Sprague-Dawley rat at 5 mg/kg measured upto 24 hrs by LC-MS/MS analysis; assay type: ADME, organism-based; details: in vivo
[17] = Toxicity in cynomolgous monkey assessed as decrease in body weight at 90 to 200 mg/kg/day for 28 days consecutively; assay type: organism-based, Macaca fascicularis; details: cynomolgus monkey, in vivo, 672 h; dose 90-200 mg/kg/day, time 28 day
Cytochrome P450 1A2 [18] = biological target: T1, Cytochrome P450 1A2; assay: Inhibition of CYP1A2 in human liver microsomes in presence of NADPH by LC-MS/MS analysis; assay type: ADME, Microsome
[19] = Cmax in Tufted capuchin monkey at 100 mg/kg, po measured for 24 hrs by LC-MS/MS analysis; assay type: ADME, organism-based; details: sapajus apella, in vivo
[20] = Half life in Tufted capuchin monkey at 10 mg/kg, po measured for 24 hrs by LC-MS/MS analysis; assay type: ADME, organism-based; details: sapajus apella, in vivo
[21] = Toxicity in cynomolgous monkey assessed as flatus in intestines at 200 mg/kg/day for 28 days consecutively; assay type: organism-based, Macaca fascicularis; details: cynomolgus monkey, in vivo, 672 h, time 28 day
Cytochrome P450 3A4 = Cytochrome P450 3A4 (Homo sapiens, UniProt P08684); assay: Induction of CYP3A4 in human hepatocytes at 50 uM incubated for 48 hrs with media containing compound renewal every 24 hrs followed by substrate addition measured after 30 mins by LC-MS/MS analysis; assay type: ADME, cell-based, Hepatocyte; details: 48.5 h
Sequence of Cytochrome P450 3A4 (P08684 whole entry): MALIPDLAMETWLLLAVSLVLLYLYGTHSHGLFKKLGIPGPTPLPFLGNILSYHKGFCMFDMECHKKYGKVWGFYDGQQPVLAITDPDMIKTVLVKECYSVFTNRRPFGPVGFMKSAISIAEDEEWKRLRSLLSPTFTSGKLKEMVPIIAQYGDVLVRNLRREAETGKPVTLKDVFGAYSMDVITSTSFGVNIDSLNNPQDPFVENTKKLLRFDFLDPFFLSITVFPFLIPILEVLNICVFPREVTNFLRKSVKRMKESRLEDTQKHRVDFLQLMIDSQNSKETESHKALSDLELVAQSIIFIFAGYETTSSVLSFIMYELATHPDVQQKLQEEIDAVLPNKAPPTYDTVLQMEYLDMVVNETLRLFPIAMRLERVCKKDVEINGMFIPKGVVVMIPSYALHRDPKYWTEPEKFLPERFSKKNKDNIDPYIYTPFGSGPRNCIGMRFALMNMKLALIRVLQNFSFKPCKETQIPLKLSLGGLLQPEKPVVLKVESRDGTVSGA

[22] = AUC (last) in Beagle dog at 5 mg/kg, po measured upto 24 hrs by LC-MS/MS analysis; assay type: ADME, organism-based, Canis lupus familiaris; details: in vivo
[23] = biological target: T3, Solute carrier family 22 member 12 (Homo sapiens, UniProt Q96S37); assay: Inhibition of URAT1 (unknown origin) by absorbance based assay
T3 sequence (Q96S37 whole entry): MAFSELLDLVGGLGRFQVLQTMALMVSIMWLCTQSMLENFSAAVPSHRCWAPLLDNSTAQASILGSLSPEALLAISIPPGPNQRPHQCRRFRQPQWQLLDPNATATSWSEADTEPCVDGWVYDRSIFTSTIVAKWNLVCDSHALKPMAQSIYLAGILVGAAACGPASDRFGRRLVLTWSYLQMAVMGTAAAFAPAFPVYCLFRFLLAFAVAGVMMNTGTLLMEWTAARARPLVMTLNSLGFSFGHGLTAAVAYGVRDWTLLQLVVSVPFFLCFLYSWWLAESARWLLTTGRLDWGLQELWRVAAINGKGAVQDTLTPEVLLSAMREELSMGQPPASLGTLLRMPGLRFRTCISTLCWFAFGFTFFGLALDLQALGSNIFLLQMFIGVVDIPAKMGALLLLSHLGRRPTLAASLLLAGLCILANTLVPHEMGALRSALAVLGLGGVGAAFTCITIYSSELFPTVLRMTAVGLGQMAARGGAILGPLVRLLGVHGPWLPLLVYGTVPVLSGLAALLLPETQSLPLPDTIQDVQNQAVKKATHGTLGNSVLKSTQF

[24] = Half life in Cynomolgous monkey at 5 mg/kg, po measured upto 24 hrs by LC-MS/MS analysis; assay type: ADME, organism-based, Macaca fascicularis; details: cynomolgus monkey, in vivo
[25] = biological target: T2, Voltage-gated inwardly rectifying potassium channel KCNH2; assay: Inhibition of hERG by electrophysiology; assay type: toxicity
[26] = Cmax in Cynomolgous monkey at 5 mg/kg, po measured upto 24 hrs by LC-MS/MS analysis; assay type: ADME, organism-based, Macaca fascicularis; details: cynomolgus monkey, in vivo

N#Cc1cc(-c2ccc(C(=O)O)c(O)c2)c2oc(F)cc2c1
Activity [1]: Non-Toxic | half-life at 1 µM [2]: 3.38 h | Activity [3]: Toxic | Cmax [4]: 16700 ng/mL | Activity [5]: Non-Toxic | Activity (Cytochrome P450 1A2 [6]): < 20% | Cmax [7]: 2530 ng/mL | Activity [8]: Toxic | IC50 [9]: > 52 µM | AUC(0-t) at 672 h [10]: 2390 µg·h/mL | NOAEL at 672 h [11]: 30 mg/kg/day | Tmax [12]: 0.8 h | Activity (Sapajus apella): 29.26 µg·h/mL | MTD [13]: 1000 mg/kg | AUC(0-t) at 24 h [14]: 302 µg·h/mL | Kp at 24 h [15]: 0.56 | bioavailability [16]: 145% | Activity [17]: Toxic | IC50 (Cytochrome P450 1A2 [18]): > 50 µM | Cmax [19]: 145000 ng/mL | half-life [20]: 1.52 h | Activity [21]: Toxic | Activity (Cytochrome P450 3A4): < 20% | AUC(0-t) at 24 h [22]: 11.5 µg·h/mL | IC50 [23]: 0.031 µM | half-life [24]: 7.9 h | IC50 [25]: > 52 µM | Cmax [26]: 3360 ng/mL
